Earlier results on 8 compounds are cited in patent US6440942B1, “14-membered macrolides derived from leucomycins” (Enanta Pharmaceuticals, Inc., priority 2000, dated 2002).

The conditions of data set [1]: for in vitro potency relative to the parent compound: main metabolites of rokitamycin, parent compound = rokitamycin; for antimicrobial activity: josamycin metabolites isolated from urine and plasma of adults given oral josamycin.
For data set [2] the following is noted: dogs; compared with other 4″-O-butyryl derivatives.
The conditions of data set [3]: monkeys; compared with other 4″-O-butyryl derivatives.

Read-outs that look alike come from different tables or passages of the source.

For the compound “4″-debutyryl leucomycin A5 [leucomycin V]”, the “in vitro potency relative to the parent compound” value in data set [1] was “one-tenth”. Consider 5-hydroxyjosamycin, for which the antimicrobial activity entry in data set [1] is given as “poor”. In the case of β-hydroxyisovaleryl josamycin, in data set [1], the antimicrobial activity result is given as “poor”. In the case of `COC1C(OC(C)=O)CC(=O)OC(C)CC=CC=CC(O)C(C)CC(CC=O)C1OC1OC(C)C(OC2CC(C)(O)C(O)C(C)O2)C(N(C)C)C1O` (stereo not drawn) [desisovaleryl josamycin], in data set [1], the antimicrobial activity entry was “inactive”.

Take `COC1C(O)CC(=O)OC(C)CC=CC=CC(=O)C(C)CC(CC=O)C1OC1OC(C)C(OC2CC(C)(O)C(OC(=O)CC(C)C)C(C)O2)C(N(C)C)C1O` (stereo not drawn) [Niddamycin]: the “antibacterial activity in vitro” value in the data set with Mycoplasma spp. and in the data set on Gram-positive bacteria was “good” throughout. For the compound demycarosyl josamycin, the antimicrobial activity entry in data set [1] is “inactive”.

Take `CCC(=O)O[C@H]1[C@H](C)O[C@@H](O[C@H]2[C@H](N(C)C)[C@@H](O)[C@H](O[C@H]3[C@@H](CC=O)C[C@@H](C)[C@@H](O)/C=C/C=C/C[C@@H](C)OC(=O)C[C@@H](O)[C@@H]3OC)O[C@@H]2C)C[C@@]1(C)O` [Leucomycin A7]: the “in vitro potency relative to the parent compound” value in data set [1] was “one-half”. In the case of `CCCC(=O)O[C@H]1[C@H](C)O[C@@H](O[C@H]2[C@H](N(C)C)[C@@H](O)[C@H](O[C@H]3[C@@H](CC=O)C[C@@H](C)[C@@H](O)/C=C/C=C/C[C@@H](C)OC(=O)C[C@@H](O)[C@@H]3OC)O[C@@H]2C)C[C@@]1(C)OC(=O)CC` [rokitamycin, 3″-O-propionyl leucomycin A5], the serum levels result in data set [2] and in data set [3] was “highest” throughout. Further, the “in vitro activity against Gram-negative bacteria relative to leucomycin A5, josamycin and midecamycin” value in the data set on Gram-negative bacteria is “twice as high”. For the same compound, the “activity among 4″-O-butyryl derivatives” value in data set [1] (compared with other 3″-O-acyl leucomycin A5 derivatives) is listed as “most active”.
